In ChEMBL document CHEMBL1145498, “A systematic interaction map of validated kinase inhibitors with Ser/Thr kinases” (Proc Natl Acad Sci U S A, 2007):

What follows are compounds tested against Calcium/calmodulin-dependent protein kinase type 1G (Homo sapiens) (UniProt Q96NX5).

Question: `Cc1c2ccncc2c(C)c2c1[nH]c1ccccc12` [ELLIPTECINE] was tested. Which ΔTm did it give?
Answer: 0.3 °C

Question: How did the ΔTm turn out when `C[S+]([O-])c1ccc(-c2nc(-c3ccc(F)cc3)c(-c3ccncc3)[nH]2)cc1` (centres undefined) [SB-203580] was run?
Answer: -0.2 °C

Question: `COc1cc(OC)c(/C=C2\C(=O)Nc3ccccc32)c(OC)c1` was tested. Which ΔTm did it give?
Answer: 0 °C

Each compound was assayed against Calcium/calmodulin-dependent protein kinase type II subunit alpha (Homo sapiens) (UniProt Q9UQM7).

Question: With `Cc1c2ccncc2c(C)c2c1[nH]c1ccccc12` [ELLIPTECINE] as the compound, how does the ΔTm read?
Answer: 2.2 °C

Question: For `C[S+]([O-])c1ccc(-c2nc(-c3ccc(F)cc3)c(-c3ccncc3)[nH]2)cc1` (centres undefined) [SB-203580], which ΔTm is on record?
Answer: 0.3 °C

Question: With `COc1cc(OC)c(/C=C2\C(=O)Nc3ccccc32)c(OC)c1` as the compound, how does the ΔTm read?
Answer: -0.1 °C

These compounds were tested against Calcium/calmodulin-dependent protein kinase type II subunit beta (Homo sapiens) (UniProt Q13554).
Sequence of Calcium/calmodulin-dependent protein kinase type II subunit beta (Homo sapiens) (Q13554 whole entry): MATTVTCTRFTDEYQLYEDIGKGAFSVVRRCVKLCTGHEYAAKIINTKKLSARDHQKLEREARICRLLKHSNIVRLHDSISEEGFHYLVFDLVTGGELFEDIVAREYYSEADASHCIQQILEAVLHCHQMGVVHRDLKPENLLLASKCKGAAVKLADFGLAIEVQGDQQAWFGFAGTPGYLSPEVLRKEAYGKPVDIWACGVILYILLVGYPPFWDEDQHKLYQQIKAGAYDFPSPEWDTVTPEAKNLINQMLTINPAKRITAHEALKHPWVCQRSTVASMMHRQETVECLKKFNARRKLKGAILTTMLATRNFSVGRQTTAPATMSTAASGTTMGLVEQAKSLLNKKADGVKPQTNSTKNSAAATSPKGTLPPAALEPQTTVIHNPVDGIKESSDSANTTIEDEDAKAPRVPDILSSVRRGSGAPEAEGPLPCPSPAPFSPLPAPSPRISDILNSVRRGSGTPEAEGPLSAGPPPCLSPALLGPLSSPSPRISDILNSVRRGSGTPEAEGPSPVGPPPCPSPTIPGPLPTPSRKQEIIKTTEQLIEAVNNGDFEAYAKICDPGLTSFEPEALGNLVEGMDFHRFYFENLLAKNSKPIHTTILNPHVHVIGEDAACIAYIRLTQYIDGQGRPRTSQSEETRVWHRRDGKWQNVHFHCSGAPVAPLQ

Question: Which ΔTm does the source give for `Cc1c2ccncc2c(C)c2c1[nH]c1ccccc12` [ELLIPTECINE] here?
Answer: 1 °C

Question: For `C[S+]([O-])c1ccc(-c2nc(-c3ccc(F)cc3)c(-c3ccncc3)[nH]2)cc1` (centres undefined) [SB-203580], which ΔTm is on record?
Answer: 0 °C

Question: For `COc1cc(OC)c(/C=C2\C(=O)Nc3ccccc32)c(OC)c1`, which ΔTm is on record?
Answer: 0.1 °C

The compounds below were run against Calcium/calmodulin-dependent protein kinase type II subunit delta (Homo sapiens) (UniProt Q13557).
Sequence of Calcium/calmodulin-dependent protein kinase type II subunit delta (Homo sapiens) (Q13557 whole entry): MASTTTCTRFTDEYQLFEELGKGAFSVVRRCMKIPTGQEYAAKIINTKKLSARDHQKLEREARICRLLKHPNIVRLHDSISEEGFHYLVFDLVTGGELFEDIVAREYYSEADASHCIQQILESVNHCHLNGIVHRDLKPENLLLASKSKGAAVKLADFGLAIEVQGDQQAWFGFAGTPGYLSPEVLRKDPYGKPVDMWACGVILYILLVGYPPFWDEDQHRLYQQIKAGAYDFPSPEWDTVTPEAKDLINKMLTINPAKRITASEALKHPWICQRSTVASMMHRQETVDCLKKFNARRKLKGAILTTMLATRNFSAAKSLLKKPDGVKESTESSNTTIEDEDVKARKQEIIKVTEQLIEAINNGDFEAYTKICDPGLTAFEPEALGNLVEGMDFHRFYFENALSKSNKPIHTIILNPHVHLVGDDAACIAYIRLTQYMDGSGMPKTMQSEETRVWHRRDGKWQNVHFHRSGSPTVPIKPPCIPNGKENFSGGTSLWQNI

Question: How did the ΔTm turn out when `Cc1c2ccncc2c(C)c2c1[nH]c1ccccc12` [ELLIPTECINE] was run?
Answer: -0.3 °C

Question: Which ΔTm does the source give for `C[S+]([O-])c1ccc(-c2nc(-c3ccc(F)cc3)c(-c3ccncc3)[nH]2)cc1` (centres undefined) [SB-203580] here?
Answer: -0.3 °C

Question: For `COc1cc(OC)c(/C=C2\C(=O)Nc3ccccc32)c(OC)c1`, which ΔTm is on record?
Answer: -0.3 °C

These compounds were tested against Calcium/calmodulin-dependent protein kinase type II subunit gamma (Homo sapiens) (UniProt Q13555).

Question: For `Cc1c2ccncc2c(C)c2c1[nH]c1ccccc12` [ELLIPTECINE], which ΔTm is on record?
Answer: 1.6 °C

Question: Which ΔTm does the source give for `C[S+]([O-])c1ccc(-c2nc(-c3ccc(F)cc3)c(-c3ccncc3)[nH]2)cc1` (centres undefined) [SB-203580] here?
Answer: 0 °C

Question: How did the ΔTm turn out when `COc1cc(OC)c(/C=C2\C(=O)Nc3ccccc32)c(OC)c1` was run?
Answer: 0 °C

These compounds were tested against Dual specificity protein kinase CLK2 (Homo sapiens) (UniProt P49760).

Question: For `Cc1c2ccncc2c(C)c2c1[nH]c1ccccc12` [ELLIPTECINE], which ΔTm is on record?
Answer: 3.3 °C

Question: For `C[S+]([O-])c1ccc(-c2nc(-c3ccc(F)cc3)c(-c3ccncc3)[nH]2)cc1` (centres undefined) [SB-203580], which ΔTm is on record?
Answer: 0.2 °C

Question: With `COc1cc(OC)c(/C=C2\C(=O)Nc3ccccc32)c(OC)c1` as the compound, how does the ΔTm read?
Answer: 0.3 °C

Each compound was assayed against Dual specificity protein kinase CLK3 (Homo sapiens) (UniProt P49761).
Sequence of Dual specificity protein kinase CLK3 (Homo sapiens) (P49761 whole entry, looked up): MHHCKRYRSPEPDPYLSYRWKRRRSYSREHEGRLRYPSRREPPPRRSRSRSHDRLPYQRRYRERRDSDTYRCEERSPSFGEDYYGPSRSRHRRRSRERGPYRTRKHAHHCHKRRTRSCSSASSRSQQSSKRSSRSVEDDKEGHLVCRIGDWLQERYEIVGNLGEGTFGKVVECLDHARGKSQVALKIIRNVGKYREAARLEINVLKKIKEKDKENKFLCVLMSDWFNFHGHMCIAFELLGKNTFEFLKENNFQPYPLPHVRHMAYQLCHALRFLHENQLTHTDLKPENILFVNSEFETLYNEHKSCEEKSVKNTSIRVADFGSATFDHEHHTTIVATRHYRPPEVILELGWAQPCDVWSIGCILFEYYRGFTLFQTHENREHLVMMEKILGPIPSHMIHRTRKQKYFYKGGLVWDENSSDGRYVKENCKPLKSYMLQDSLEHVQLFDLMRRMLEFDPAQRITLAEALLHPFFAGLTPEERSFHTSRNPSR

Question: `Cc1c2ccncc2c(C)c2c1[nH]c1ccccc12` [ELLIPTECINE] was tested. Which ΔTm did it give?
Answer: 4.2 °C

Question: With `C[S+]([O-])c1ccc(-c2nc(-c3ccc(F)cc3)c(-c3ccncc3)[nH]2)cc1` (centres undefined) [SB-203580] as the compound, how does the ΔTm read?
Answer: -0.1 °C

Question: How did the ΔTm turn out when `COc1cc(OC)c(/C=C2\C(=O)Nc3ccccc32)c(OC)c1` was run?
Answer: 0 °C

Each compound was assayed against Casein kinase I isoform gamma-1 (Homo sapiens) (UniProt Q9HCP0).

Question: For `Cc1c2ccncc2c(C)c2c1[nH]c1ccccc12` [ELLIPTECINE], which ΔTm is on record?
Answer: 0.6 °C

Question: Which ΔTm does the source give for `C[S+]([O-])c1ccc(-c2nc(-c3ccc(F)cc3)c(-c3ccncc3)[nH]2)cc1` (centres undefined) [SB-203580] here?
Answer: 0.8 °C

Question: For `COc1cc(OC)c(/C=C2\C(=O)Nc3ccccc32)c(OC)c1`, which ΔTm is on record?
Answer: 0.5 °C

What follows are compounds tested against Death-associated protein kinase 3 (Homo sapiens) (UniProt O43293).
Sequence of Death-associated protein kinase 3 (Homo sapiens) (O43293 whole entry, looked up): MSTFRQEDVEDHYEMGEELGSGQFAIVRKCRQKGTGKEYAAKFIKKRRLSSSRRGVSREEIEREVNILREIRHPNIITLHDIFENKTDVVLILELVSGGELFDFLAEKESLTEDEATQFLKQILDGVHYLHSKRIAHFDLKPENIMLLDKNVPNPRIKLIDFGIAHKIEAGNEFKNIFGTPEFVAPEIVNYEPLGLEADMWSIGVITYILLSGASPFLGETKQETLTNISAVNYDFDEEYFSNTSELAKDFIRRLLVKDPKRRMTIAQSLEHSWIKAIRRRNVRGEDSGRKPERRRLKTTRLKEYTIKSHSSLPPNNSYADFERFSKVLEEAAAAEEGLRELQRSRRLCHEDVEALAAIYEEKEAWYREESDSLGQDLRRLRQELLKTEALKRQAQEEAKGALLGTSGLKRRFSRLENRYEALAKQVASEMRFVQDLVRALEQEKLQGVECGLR

Question: How did the ΔTm turn out when `Cc1c2ccncc2c(C)c2c1[nH]c1ccccc12` [ELLIPTECINE] was run?
Answer: 4.3 °C

Question: How did the ΔTm turn out when `C[S+]([O-])c1ccc(-c2nc(-c3ccc(F)cc3)c(-c3ccncc3)[nH]2)cc1` (centres undefined) [SB-203580] was run?
Answer: -0.4 °C

Question: `COc1cc(OC)c(/C=C2\C(=O)Nc3ccccc32)c(OC)c1` was tested. Which ΔTm did it give?
Answer: -0.3 °C

What follows are compounds tested against T1, Myotonin-protein kinase (Homo sapiens) (UniProt Q09013).
T1 sequence (whole entry): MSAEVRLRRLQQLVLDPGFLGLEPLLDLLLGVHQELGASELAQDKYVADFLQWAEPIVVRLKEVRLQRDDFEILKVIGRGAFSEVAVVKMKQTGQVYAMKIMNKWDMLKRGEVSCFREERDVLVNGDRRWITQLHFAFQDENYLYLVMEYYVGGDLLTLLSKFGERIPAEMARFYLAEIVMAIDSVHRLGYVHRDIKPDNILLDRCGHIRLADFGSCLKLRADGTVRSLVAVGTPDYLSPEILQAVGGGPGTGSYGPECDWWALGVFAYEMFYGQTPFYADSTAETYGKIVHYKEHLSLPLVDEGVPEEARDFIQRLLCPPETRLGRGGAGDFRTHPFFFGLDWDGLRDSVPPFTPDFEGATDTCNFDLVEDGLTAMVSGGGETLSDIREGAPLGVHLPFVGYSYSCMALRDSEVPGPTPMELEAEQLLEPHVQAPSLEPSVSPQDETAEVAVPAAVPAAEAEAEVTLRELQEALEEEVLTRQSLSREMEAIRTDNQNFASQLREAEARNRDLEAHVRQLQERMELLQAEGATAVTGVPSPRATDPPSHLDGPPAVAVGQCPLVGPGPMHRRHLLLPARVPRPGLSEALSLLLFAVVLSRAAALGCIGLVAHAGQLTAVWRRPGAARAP

Question: With `Cc1c2ccncc2c(C)c2c1[nH]c1ccccc12` [ELLIPTECINE] as the compound, how does the ΔTm read?
Answer: 3.5 °C

Question: Which ΔTm does the source give for `C[S+]([O-])c1ccc(-c2nc(-c3ccc(F)cc3)c(-c3ccncc3)[nH]2)cc1` (centres undefined) [SB-203580] here?
Answer: 0.1 °C

Question: With `COc1cc(OC)c(/C=C2\C(=O)Nc3ccccc32)c(OC)c1` as the compound, how does the ΔTm read?
Answer: 0.2 °C

These compounds were tested against Dual specificity mitogen-activated protein kinase kinase 2 (Homo sapiens, UniProt P36507).

Question: With `Cc1c2ccncc2c(C)c2c1[nH]c1ccccc12` [ELLIPTECINE] as the compound, how does the ΔTm read?
Answer: 1 °C

Question: How did the ΔTm turn out when `C[S+]([O-])c1ccc(-c2nc(-c3ccc(F)cc3)c(-c3ccncc3)[nH]2)cc1` (centres undefined) [SB-203580] was run?
Answer: 0.2 °C

Question: `COc1cc(OC)c(/C=C2\C(=O)Nc3ccccc32)c(OC)c1` was tested. Which ΔTm did it give?
Answer: -0.4 °C

These compounds were tested against T2, Dual specificity mitogen-activated protein kinase kinase 6 (Homo sapiens) (UniProt P52564).
T2 sequence (whole entry): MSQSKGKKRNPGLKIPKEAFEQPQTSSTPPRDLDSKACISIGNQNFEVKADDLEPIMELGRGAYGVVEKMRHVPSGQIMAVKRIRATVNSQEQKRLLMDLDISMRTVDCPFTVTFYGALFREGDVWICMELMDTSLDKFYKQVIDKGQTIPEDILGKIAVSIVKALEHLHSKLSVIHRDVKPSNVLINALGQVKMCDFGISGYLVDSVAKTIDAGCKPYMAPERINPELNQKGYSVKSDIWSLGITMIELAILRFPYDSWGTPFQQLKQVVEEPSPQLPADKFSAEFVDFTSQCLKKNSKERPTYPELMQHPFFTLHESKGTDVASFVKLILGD

Question: How did the ΔTm turn out when `Cc1c2ccncc2c(C)c2c1[nH]c1ccccc12` [ELLIPTECINE] was run?
Answer: 6.3 °C

Question: For `C[S+]([O-])c1ccc(-c2nc(-c3ccc(F)cc3)c(-c3ccncc3)[nH]2)cc1` (centres undefined) [SB-203580], which ΔTm is on record?
Answer: -0.1 °C

Question: `COc1cc(OC)c(/C=C2\C(=O)Nc3ccccc32)c(OC)c1` was tested. Which ΔTm did it give?
Answer: 0 °C

Each compound was assayed against Mitogen-activated protein kinase 3 (Homo sapiens, UniProt P27361).

Question: For `Cc1c2ccncc2c(C)c2c1[nH]c1ccccc12` [ELLIPTECINE], which ΔTm is on record?
Answer: 0.3 °C

Question: With `C[S+]([O-])c1ccc(-c2nc(-c3ccc(F)cc3)c(-c3ccncc3)[nH]2)cc1` (centres undefined) [SB-203580] as the compound, how does the ΔTm read?
Answer: 0.1 °C

Question: Which ΔTm does the source give for `COc1cc(OC)c(/C=C2\C(=O)Nc3ccccc32)c(OC)c1` here?
Answer: 0 °C

What follows are compounds tested against Mitogen-activated protein kinase 6 (Homo sapiens) (UniProt Q16659).
Sequence of Mitogen-activated protein kinase 6 (Homo sapiens) (Q16659 whole entry): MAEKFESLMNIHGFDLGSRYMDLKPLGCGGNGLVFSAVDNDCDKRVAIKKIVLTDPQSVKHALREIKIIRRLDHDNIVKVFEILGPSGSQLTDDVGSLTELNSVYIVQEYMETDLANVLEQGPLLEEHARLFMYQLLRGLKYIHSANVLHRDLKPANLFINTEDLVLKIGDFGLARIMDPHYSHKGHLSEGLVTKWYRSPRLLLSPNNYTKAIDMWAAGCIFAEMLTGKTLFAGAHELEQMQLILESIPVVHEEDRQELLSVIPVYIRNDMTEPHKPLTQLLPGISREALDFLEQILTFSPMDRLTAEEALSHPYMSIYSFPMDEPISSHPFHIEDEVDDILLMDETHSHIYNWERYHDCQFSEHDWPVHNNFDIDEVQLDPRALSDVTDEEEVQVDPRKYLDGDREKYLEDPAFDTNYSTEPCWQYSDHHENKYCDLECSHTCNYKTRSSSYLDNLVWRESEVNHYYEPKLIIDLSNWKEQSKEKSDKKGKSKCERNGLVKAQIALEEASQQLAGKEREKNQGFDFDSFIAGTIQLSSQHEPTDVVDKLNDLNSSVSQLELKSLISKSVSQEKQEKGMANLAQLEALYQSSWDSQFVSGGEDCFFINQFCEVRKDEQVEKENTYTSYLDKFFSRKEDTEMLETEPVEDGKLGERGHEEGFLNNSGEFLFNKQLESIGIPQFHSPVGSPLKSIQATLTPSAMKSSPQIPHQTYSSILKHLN

Question: Which ΔTm does the source give for `Cc1c2ccncc2c(C)c2c1[nH]c1ccccc12` [ELLIPTECINE] here?
Answer: 1.5 °C

Question: With `C[S+]([O-])c1ccc(-c2nc(-c3ccc(F)cc3)c(-c3ccncc3)[nH]2)cc1` (centres undefined) [SB-203580] as the compound, how does the ΔTm read?
Answer: 0 °C

Question: How did the ΔTm turn out when `COc1cc(OC)c(/C=C2\C(=O)Nc3ccccc32)c(OC)c1` was run?
Answer: -0.2 °C

What follows are compounds tested against Serine/threonine-protein kinase OSR1 (Homo sapiens) (UniProt O95747).

Question: With `Cc1c2ccncc2c(C)c2c1[nH]c1ccccc12` [ELLIPTECINE] as the compound, how does the ΔTm read?
Answer: 0.3 °C

Question: `C[S+]([O-])c1ccc(-c2nc(-c3ccc(F)cc3)c(-c3ccncc3)[nH]2)cc1` (centres undefined) [SB-203580] was tested. Which ΔTm did it give?
Answer: -0.2 °C

Question: Which ΔTm does the source give for `COc1cc(OC)c(/C=C2\C(=O)Nc3ccccc32)c(OC)c1` here?
Answer: 0.2 °C

What follows are compounds tested against Serine/threonine-protein kinase PLK1 (Homo sapiens) (UniProt P53350).
Sequence of Serine/threonine-protein kinase PLK1 (Homo sapiens) (P53350 whole entry): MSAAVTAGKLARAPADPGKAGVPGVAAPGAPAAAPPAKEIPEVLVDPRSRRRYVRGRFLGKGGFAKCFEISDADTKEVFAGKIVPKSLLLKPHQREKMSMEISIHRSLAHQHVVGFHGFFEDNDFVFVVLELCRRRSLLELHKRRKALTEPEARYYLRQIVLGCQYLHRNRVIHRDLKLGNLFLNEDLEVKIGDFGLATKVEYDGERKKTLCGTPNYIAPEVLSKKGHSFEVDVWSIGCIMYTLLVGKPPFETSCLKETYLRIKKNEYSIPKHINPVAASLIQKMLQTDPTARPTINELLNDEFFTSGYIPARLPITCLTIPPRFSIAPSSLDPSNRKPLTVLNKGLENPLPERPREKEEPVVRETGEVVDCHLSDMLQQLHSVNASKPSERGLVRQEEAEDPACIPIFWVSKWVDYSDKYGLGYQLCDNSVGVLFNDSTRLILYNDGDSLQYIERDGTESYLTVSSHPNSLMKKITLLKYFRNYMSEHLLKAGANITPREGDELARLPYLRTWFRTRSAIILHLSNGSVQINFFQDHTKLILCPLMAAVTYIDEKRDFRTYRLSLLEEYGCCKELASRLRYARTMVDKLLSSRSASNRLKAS

Question: For `Cc1c2ccncc2c(C)c2c1[nH]c1ccccc12` [ELLIPTECINE], which ΔTm is on record?
Answer: 3.9 °C

Question: With `C[S+]([O-])c1ccc(-c2nc(-c3ccc(F)cc3)c(-c3ccncc3)[nH]2)cc1` (centres undefined) [SB-203580] as the compound, how does the ΔTm read?
Answer: 0.2 °C

Question: Which ΔTm does the source give for `COc1cc(OC)c(/C=C2\C(=O)Nc3ccccc32)c(OC)c1` here?
Answer: -0.7 °C

What follows are compounds tested against TRAF2 and NCK-interacting protein kinase (Homo sapiens) (UniProt Q9UKE5).
Sequence of TRAF2 and NCK-interacting protein kinase (Homo sapiens) (Q9UKE5 whole entry, looked up): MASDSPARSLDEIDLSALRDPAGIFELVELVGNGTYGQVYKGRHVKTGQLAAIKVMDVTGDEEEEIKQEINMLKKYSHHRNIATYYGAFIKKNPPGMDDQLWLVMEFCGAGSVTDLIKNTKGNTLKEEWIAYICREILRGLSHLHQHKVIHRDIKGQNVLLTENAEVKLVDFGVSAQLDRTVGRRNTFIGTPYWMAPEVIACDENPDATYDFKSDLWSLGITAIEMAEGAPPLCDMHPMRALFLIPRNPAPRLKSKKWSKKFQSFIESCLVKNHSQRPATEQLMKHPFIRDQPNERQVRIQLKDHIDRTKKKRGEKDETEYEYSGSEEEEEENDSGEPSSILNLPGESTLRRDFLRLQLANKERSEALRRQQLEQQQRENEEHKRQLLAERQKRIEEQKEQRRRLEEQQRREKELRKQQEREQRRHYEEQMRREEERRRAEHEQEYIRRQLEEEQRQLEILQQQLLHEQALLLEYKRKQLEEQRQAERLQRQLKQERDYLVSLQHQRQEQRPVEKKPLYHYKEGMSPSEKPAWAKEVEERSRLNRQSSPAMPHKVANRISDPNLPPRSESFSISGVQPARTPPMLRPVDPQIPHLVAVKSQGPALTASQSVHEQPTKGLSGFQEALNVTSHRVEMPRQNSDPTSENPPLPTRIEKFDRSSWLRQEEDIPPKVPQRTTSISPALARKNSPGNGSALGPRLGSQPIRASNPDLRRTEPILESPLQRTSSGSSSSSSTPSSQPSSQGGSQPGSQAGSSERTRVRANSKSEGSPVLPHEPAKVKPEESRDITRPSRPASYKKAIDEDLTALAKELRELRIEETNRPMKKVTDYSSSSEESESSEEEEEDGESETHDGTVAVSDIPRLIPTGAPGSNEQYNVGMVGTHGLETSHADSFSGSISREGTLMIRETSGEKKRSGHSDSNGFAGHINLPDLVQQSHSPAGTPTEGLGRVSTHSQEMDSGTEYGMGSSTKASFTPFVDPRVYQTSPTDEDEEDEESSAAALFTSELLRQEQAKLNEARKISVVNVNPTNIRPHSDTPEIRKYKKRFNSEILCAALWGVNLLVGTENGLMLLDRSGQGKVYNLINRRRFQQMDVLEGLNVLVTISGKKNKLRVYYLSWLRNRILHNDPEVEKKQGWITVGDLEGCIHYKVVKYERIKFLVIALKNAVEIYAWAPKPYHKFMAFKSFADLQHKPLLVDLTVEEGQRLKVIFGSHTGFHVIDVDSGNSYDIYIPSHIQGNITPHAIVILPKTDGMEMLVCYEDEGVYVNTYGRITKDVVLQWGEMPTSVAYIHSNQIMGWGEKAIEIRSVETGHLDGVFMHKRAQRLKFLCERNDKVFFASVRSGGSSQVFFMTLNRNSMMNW

Question: For `Cc1c2ccncc2c(C)c2c1[nH]c1ccccc12` [ELLIPTECINE], which ΔTm is on record?
Answer: -0.2 °C

Question: `C[S+]([O-])c1ccc(-c2nc(-c3ccc(F)cc3)c(-c3ccncc3)[nH]2)cc1` (centres undefined) [SB-203580] was tested. Which ΔTm did it give?
Answer: 2 °C

Question: Which ΔTm does the source give for `COc1cc(OC)c(/C=C2\C(=O)Nc3ccccc32)c(OC)c1` here?
Answer: 0.8 °C

The compounds below were run against T3, Serine/threonine-protein kinase VRK1 (Homo sapiens) (UniProt Q99986).
T3 sequence (whole entry): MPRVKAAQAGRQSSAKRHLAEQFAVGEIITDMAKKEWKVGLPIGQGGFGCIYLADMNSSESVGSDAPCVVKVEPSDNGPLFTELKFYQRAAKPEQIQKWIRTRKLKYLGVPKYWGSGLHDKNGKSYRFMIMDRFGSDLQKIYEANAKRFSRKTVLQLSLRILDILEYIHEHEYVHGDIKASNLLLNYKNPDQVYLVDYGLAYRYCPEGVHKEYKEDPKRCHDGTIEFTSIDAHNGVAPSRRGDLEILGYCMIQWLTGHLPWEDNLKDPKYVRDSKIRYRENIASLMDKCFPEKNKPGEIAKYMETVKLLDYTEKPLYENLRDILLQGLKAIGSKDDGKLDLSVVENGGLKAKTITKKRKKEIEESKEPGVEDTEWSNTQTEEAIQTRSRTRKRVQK

Question: Which ΔTm does the source give for `Cc1c2ccncc2c(C)c2c1[nH]c1ccccc12` [ELLIPTECINE] here?
Answer: 0.4 °C

Question: How did the ΔTm turn out when `C[S+]([O-])c1ccc(-c2nc(-c3ccc(F)cc3)c(-c3ccncc3)[nH]2)cc1` (centres undefined) [SB-203580] was run?
Answer: -0.1 °C

Question: `COc1cc(OC)c(/C=C2\C(=O)Nc3ccccc32)c(OC)c1` was tested. Which ΔTm did it give?
Answer: 0.6 °C
